± gives the standard deviation of the averaged measurements.
compound: CN(C)CC[C@H](CSc1ccccc1)Nc1ccc(S(=O)(=O)NC(=O)c2ccc(N3CCN(Cc4ccccc4-c4ccc(Cl)cc4)CC3)cc2)cc1[N+](=O)[O-] [ABT-737]; experiment: surviving fraction relative to DMSO-only wells; higher = less growth inhibition; details: 500 nM; exposure time: 5 days
Summary of the method: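 Tumour cell lines were seeded in log phase at 250–500 cells per well into 384-well plates. Starting 24 hours later, inhibitors were present continuously for five days at 0.5, 1, 5, 10, 50, 100, 500 and 1000 nM. Surviving fraction, from CellTiter-Glo luminescence, is normalised to the median of DMSO-only wells. Three screens per line were required, with replicate Pearson r >0.7 and median Z' >0.3 for a line to be kept.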

Row | Test System | surviving fraction
1 | SUM149.B1*.S BREAST | 1.1 ± 0.024
2 | 93VU HEADNECK | 1.12 ± 0.09
3 | LM7 BONE | 0.921 ± 0.095
4 | 143B BONE | 1.12 ± 0.037
5 | SUM159 BREAST | 1.11 ± 0.018
6 | SUM149 BREAST | 0.97 ± 0.049
7 | MDAMB361 BREAST | 0.843 ± 0.055
8 | SAOS2 BONE | 1.14 ± 0.12
9 | ASKA SYNOVIAL | 0.914 ± 0.084
10 | HCC1395 BREAST | 1.12 ± 0.069
11 | HCC1954 BREAST | 0.674 ± 0.15
12 | CME SYNOVIAL | 1.21 ± 0.099
13 | VCAP PROSTATE | 1.01 ± 0.1
14 | YAMATO SYNOVIAL | 1.27 ± 0.026
15 | HCC202 BREAST | 1.15 ± 0.5
16 | HELA CERVIX | 1.2 ± 0.13
17 | SG27 HEADNECK | 0.88 ± 0.11
18 | CAL72 BONE | 1.08 ± 0.12
19 | MDAMB134 BREAST | 0.764 ± 0.04
20 | C33A CERVIX | 0.927 ± 0.11

Row | Test System | surviving fraction
21 | SKBR3 BREAST | 1.01 ± 0.14
22 | MHM BONE | 1.09 ± 0.015
23 | VP229 BREAST | 1.17 ± 0.017
24 | SYO1 SYNOVIAL | 0.752 ± 0.03
25 | ZR751 BREAST | 1.07 ± 0.095
26 | KPD BONE | 0.839 ± 0.023
27 | SIHA CERVIX | 1.19 ± 0.056
28 | DU4475 BREAST | 0.373 ± 0.067
29 | BT549 BREAST | 1.04 ± 0.16
30 | COLO320DM LARGE INTESTINE | 1.21 ± 0.13
31 | T47D BREAST | 1.11 ± 0.11
32 | H23 LUNG | 1.08 ± 0.065
33 | NCIH441 LUNG | 1.11 ± 0.086
34 | HCT15 LARGE INTESTINE | 1.03 ± 0.11
35 | SCC90 HEADNECK | 0.949 ± 0.05
36 | MDAMB453 BREAST | 1.07 ± 0.057
37 | MG63 BONE | 1.07 ± 0.016
38 | A549 LUNG | 1.12 ± 0.044
39 | MDAMB468 BREAST | 1.08 ± 0.03

same assay, conditions: 1000 nM; exposure time: 5 days

Row | Test System | surviving fraction
40 | SUM149.B1*.S BREAST | 1.16 ± 0.055
41 | 93VU HEADNECK | 1.04 ± 0.074
42 | LM7 BONE | 0.905 ± 0.043
43 | 143B BONE | 1.14 ± 0.064
44 | SUM159 BREAST | 1.08 ± 0.014
45 | SUM149 BREAST | 0.961 ± 0.056
46 | MDAMB361 BREAST | 0.846 ± 0.086
47 | SAOS2 BONE | 1.08 ± 0.018
48 | ASKA SYNOVIAL | 0.79 ± 0.066
49 | HCC1395 BREAST | 1.1 ± 0.065
50 | HCC1954 BREAST | 0.564 ± 0.092
51 | CME SYNOVIAL | 1.23 ± 0.07
52 | VCAP PROSTATE | 0.94 ± 0.047
53 | YAMATO SYNOVIAL | 1.27 ± 0.14
54 | HCC202 BREAST | 0.965 ± 0.018
55 | HELA CERVIX | 1.16 ± 0.07
56 | SG27 HEADNECK | 0.797 ± 0.059
57 | CAL72 BONE | 1.06 ± 0.17
58 | MDAMB134 BREAST | 0.471 ± 0.033
59 | C33A CERVIX | 1.04 ± 0.15

Row | Test System | surviving fraction
60 | SKBR3 BREAST | 1.13 ± 0.13
61 | MHM BONE | 1.12 ± 0.015
62 | VP229 BREAST | 1.13 ± 0.063
63 | SYO1 SYNOVIAL | 0.504 ± 0.024
64 | ZR751 BREAST | 1.03 ± 0.15
65 | KPD BONE | 0.691 ± 0.042
66 | SIHA CERVIX | 1.14 ± 0.043
67 | DU4475 BREAST | 0.203 ± 0.047
68 | BT549 BREAST | 0.841 ± 0.097
69 | COLO320DM LARGE INTESTINE | 1.13 ± 0.055
70 | T47D BREAST | 1.05 ± 0.035
71 | H23 LUNG | 1.048 ± 0.004
72 | NCIH441 LUNG | 1.06 ± 0.15
73 | HCT15 LARGE INTESTINE | 1.09 ± 0.029
74 | SCC90 HEADNECK | 0.853 ± 0.087
75 | MDAMB453 BREAST | 1 ± 0.047
76 | MG63 BONE | 1.06 ± 0.04
77 | A549 LUNG | 1.05 ± 0.053
78 | MDAMB468 BREAST | 1.09 ± 0.12

From the supplement of paper PMC6045584
